In ChEMBL document CHEMBL1122597, “Palladium (II)-catalyzed olefin-coupling reactions of kainic acid: effects of substitution on the isopropenyl group on receptor binding” (J Med Chem, 1984) one finds IC50 data, which are given here for four compounds.

The species named for the assay is Rattus norvegicus. Put plainly: Concentration that produces 50% displacement of [3H]-kainic acid from nerve cell membrane receptor sites. In kind it is functional. (In general: Displacement assays read how much labelled ligand stays bound in the presence of the test substance.)

In the case of `C/C(=C\c1cccc([N+](=O)[O-])c1)C1CN[C@H](C(=O)O)C1CC(=O)O` (some centres undefined), the IC50 – broadly, the concentration that inhibits the measured activity by half – turned out to be 79.4 nM.
`C/C(=C/c1cccc([N+](=O)[O-])c1)C1CN[C@H](C(=O)O)C1CC(=O)O` (some centres undefined) registered an IC50 of 417 nM.
With `CC(C)[C@H]1CN[C@H](C(=O)O)[C@H]1CC(=O)O` [DIHYDROKAINATE] the figure was 646 nM.
With `C=C(C)[C@H]1CN[C@H](C(=O)O)[C@H]1CC(=O)O` [KAINIC ACID] the figure was 17.8 nM.
